Reference: patent publication US20260049089A1, “KRAS INHIBITOR COMPOUND” (SHANGHAI APEIRON THERAPEUTICS COMPANY LIMITED, priority 2022, published 2026)
pIC50: −log10 of the molar value. Like-named read-outs stand apart in the source and are kept apart here.

Experiments:
pERK in AGS cells = assay: ERK phosphorylation cell assay, AGS; type: cell-based; conditions: 3 hours compound incubation, read-out: pERK AGS_IC50
Experimental: (§1) • Day 1: AGS cells were seeded into a 384-well cell culture plate and incubated overnight at 37° C. with 5% CO2 in a cell culture incubator. • Day 2: Compounds were added to the plate using an Echo550 liquid handler, followed by incubation at 37° C. with 5% CO2 in a cell culture incubator for 3 hours. Subsequently, the cells were fixed with paraformaldehyde, permeabilized with methanol, and blocked with blocking buffer. A primary antibody mixture (rabbit anti-pERK, mouse anti-GAPDH) was added, and the plate was incubated overnight at 4° C. • Day 3: The primary antibodies were removed, and a secondary antibody mixture (goat anti-rabbit 800CW, goat anti-mouse 680RD) was added. The plate was incubated at room temperature in the dark. After three washes with PBST, the plate was inverted and centrifuged for 1 minute. Fluorescence signal values were read using an Odyssey CLx imaging system.
(§2) [formula] • Negative control: DMSO • Positive control: 10 μM Reference • Fitted using XLFit 5.0 with the following parameters:
(§3) [formula] • X: Log of compound concentration • Y: Mean relative expression levels of p-ERK across replicates

pERK in AsPC-1 cells = assay: ERK phosphorylation cell assay, AsPC-1; type: cell-based; conditions: read-out: pERK AsPC-1_IC50
Experimental: [Worded in the source for another cell line; this cell line is reported under the same test.] as §1, §2, §3

[1] = Homo sapiens, ASPC1, AsPC-1 cells

Row | Compound | pIC50 (pERK in AGS cells; Homo sapiens, AGS, 3 h) | pIC50 (pERK in AsPC-1 cells; [1]) | pIC50 (pERK in AGS cells) | pIC50 (pERK in AsPC-1 cells; AsPC-1 cells)
1 | C=C1CN2CC(=C)CC2(COc2nc(N3CCC[C@@](C)(O)C3)c3cc4c(c(F)c3n2)-c2cc(O)cc3ccc(F)c(c23)CCCCCN4)C1 [Example 31] | 6.87 | 6.65 | – | –
2 | CCN1CCCc2c(F)ccc3cc(O)cc(c23)-c2c(cc3c(N4CC5CCC(C4)N5)nc(OC[C@@]45CCCN4C[C@H](F)C5)nc3c2F)C1=O [Example 13, 10-((1R,5S)-3,8-diazabicyclo[3.2.1]oct-3-yl)-7-ethyl-3,14-difluoro-12-(((2R,7aS)-2-fluorotetrahydro-1H-pyrazin-7a(5H)-yl)methoxy)-16-hydroxy-4,5,6,7-tetrahydro-8H-naphtho[1′,8′:5,6,7]acrylo[3,4-g]quinazolin-8-one] | 5.40 | 5.09 | – | –
3 | O=C1CCCCCc2c(F)ccc3cc(O)cc(c23)-c2c(cc3c(N4CC5CCC(C4)N5)nc(OC[C@@]45CCCN4C[C@H](F)C5)nc3c2F)N1 [Example 9A, 12-((1R,5S)-3,8-diazabicyclo[3.2.1]octan-3-yl)-3,16-difluoro-14-(((2R,7aS)-2-fluorotetrahydro-1H-pyrazin-7a(5H)-yl)methoxy)-18-hydroxy-5,6,7,8-tetrahydro-4H-naphtho[1′,8′:4,5,6][1]azacyclododecino[2,3-g]quinazolin-9(10H)-one] | – | – | 6.16 | 5.71
4 | 13-((2,2-difluoro-6-methylenetetrahydro-1H-pyrazin-7a(5H)-yl)methoxy)-3,15-difluoro-11-((R)-3-hydroxy-3-methylpiperidin-1-yl)-4,5,6,7,8,9-hexahydronaphtho[1′,8′:4,5,6][1]azacycloundecano[2,3-g]quinazolin-17-ol [Example 38] | – | – | < 5.00 | < 5.00
5 | O=C1CCCCCCCCc2c(F)ccc3cc(O)cc(c23)-c2c(cc3c(N4CC5CCC(C4)N5)nc(OCC45CCCN4CC(F)C5)nc3c2F)N1 [Example 10, 15-((1R,5S)-3,8-diazabicyclo[3.2.1]octan-3-yl)-3,19-difluoro-17-(((2R,7aS)-2-fluorotetrahydro-1H-pyrazin-7a(5H)-yl)methoxy)-21-hydroxy-4,5,6,7,8,9,10,11-octahydronaphtho[1′,8′:4,5,6][1]azacyclopentadecano[2,3-g]quinazolin-12(13H)-one] | – | – | < 5.00 | < 5.00
6 | O=C1CCCc2c(F)ccc3cc(O)cc(c23)-c2c(cc3c(N4CC5CCC(C4)N5)nc(OCC(F)(F)F)nc3c2F)N1 [Example 15, 10-((1R,5S)-3,8-diazabicyclo[3.2.1]octan-3-yl)-3,14-difluoro-16-hydroxy-12-(2,2,2-trifluoroethoxy)-5,6-dihydro-4H-naphtho[1′,8′:4,5,6]azacycloundecino[2,3-g]quinazolin-7(8H)-one] | < 5.00 | – | – | –
7 | C=C1CN2CCC[C@@]2(COc2nc(N3CCC[C@@](C)(O)C3)c3cc4c(c(F)c3n2)-c2cccc3ccc(F)c(c23)CCOCCN4)C1 [Example 53, (R)-1-(3,15-difluoro-13-(((S)-2-methylenetetrahydro-1H-pyrazin-7a(5H)-yl)methoxy)-4,5,8,9-tetrahydro-7H-naphtho[1′,8′:7,8,9][1]oxa[4]azacycloundeca[5,6-g]quinazoline-11-yl)-3-methylpiperidin-3-ol] | 5.66 | 5.48 | – | –
8 | C=C1CN2CCC[C@@]2(COc2nc(N3CCC[C@@](C)(O)C3)c3cc4c(c(F)c3n2)-c2cc(OC(=O)CCCCCCCCC)cc3ccc(F)c(c23)CCOCCN4C)C1 [Example 51, 3,15-difluoro-11-((R)-3-hydroxy-3-methylpiperidin-1-yl)-9-methyl-13-(((S)-2-methylenetetrahydro-1H-pyrazin-7a(5H)-yl)methoxy)-4,5,8,9-tetrahydro-7H-naphtho[1′,8′:7,8,9111]oxa[4]azacycloundeca[5,6-g]quinazoline-17-yl decanoate] | 8.62 | 8.21 | – | –
9 | C[C@@]1(O)CCCN(c2nc(OCC34CCCN3C3CC3C4)nc3c(F)c4c(cc23)NCCCCCc2c(F)ccc3cc(O)cc-4c23)C1 (stereo partly drawn) [Example 37, 3,15-Difluoro-13-((hexahydrocyclopropano[b]pyrrolizin-5a(3H)-yl)methoxy)-11-((R)-3-hydroxy-3-methylpiperidin-1-yl)-4,5,6,7,8,9-hexahydro-naphtho[1′,8′:4,5,6][1]azacycloundecino[2,3-g]quinazoline-17-ol] | 6.26 | 5.45 | – | –
10 | C=C1CN2CCCC2(COc2nc(N3CCC[C@@](C)(O)C3)c3cc4c(c(F)c3n2)-c2cc(O)cc3ccc(F)c(c23)CC/C=C\CN4)C1 (stereo partly drawn) [Example 32, (Z)-3,15-difluoro-11-((R)-3-hydroxy-3-methylpiperidin-1-yl)-13-((2-methylenetetrahydro-1H-pyrazin-7a(5H)-yl)methoxy)-4,5,8,9-tetrahydronaphtho[1′,8′:4,5,6][1]azacycloondecano[2,3-g]quinazolin-17-ol] | 6.19 | 5.95 | – | –
11 | Oc1cc2c3c(c(F)ccc3c1)CCCCNc1cc3c(N4CC5CCC(C4)N5)nc(OC[C@@]45CCCN4C[C@H](F)C5)nc3c(F)c1-2 [Example 2, 10-((1R,5S)-3,8-Diazabicyclo[3.2.1]octan-3-yl)-3,14-difluoro-12-(((2R,7aS)-2-fluorotetrahydro-1H-pyrazin-7a(5H)-yl)methoxy)-5,6,7,8-tetrahydro-4H-naphtho[1′,8′:4,5,6]acridin[2,3-g]quinazolin-16-ol] | 6.81 | 6.15 | – | –
12 | C=C1CN2CCC[C@@]2(COc2nc(N3CCC[C@@](C)(O)C3)c3cc4c(c(F)c3n2)-c2cc(O)cc3ccc(F)c(c23)CCOCCN4)C1 (single isomer, unassigned) [Example 42C] | – | – | – | 7.00
13 | O=C1NCCCc2c(F)ccc3cc(O)cc(c23)-c2c1cc1c(N3CC4CCC(C3)N4)nc(OC[C@@]34CCCN3C[C@H](F)C4)nc1c2F [Example 12, 10-((1R,5S)-3,8-diazabicyclo[3.2.1]oct-3-yl)-3,14-difluoro-12-(((2R,7aS)-2-fluorotetrahydro-1H-pyrazin-7a(5H)-yl)methoxy)-16-hydroxy-4,5,6,7-tetrahydro-8H-naphtho[1′,8′:5,6,7]acredo [3,4-g]quinazolin-8-one] | 5.26 | < 5.00 | – | –
14 | C[C@@]1(O)CCCN(c2nc(OCC34CCCN3CC(=C(F)F)C4)nc3c(F)c4c(cc23)NCCCCCc2c(F)ccc3cc(O)cc-4c23)C1 (stereo partly shown) [Example 29] | 5.27 | 5.34 | – | –
15 | O=C1NCCCCCc2c(F)ccc3cc(O)cc(c23)-c2c1cc1c(N3CC4CCC(C3)N4)nc(OC[C@@]34CCCN3C[C@H](F)C4)nc1c2F [Example 14, 12-((1R,5S)-3,8-diazabicyclo[3.2.1]oct-3-yl)-3,16-difluoro-14-(((2R,7aS)-2-fluorotetrahydro-1H-pyrazin-7a(5H)-yl)methoxy)-18-hydroxy-4,5,6,7,8,9-hexahydro-10H-naphtho[1′,8′:5,6,7][1]azacyclododecano[3,4-g]quinazolin-10-one] | 5.56 | 5.42 | – | –
16 | C[C@@]1(O)CCCN(c2nc(OCC34CCC(CC3)OC4)nc3c(F)c4c(cc23)NCCCCCc2c(F)ccc3cc(O)cc-4c23)C1 [Example 19] | < 5.00 | < 5.00 | – | –

Other lines, results leading:

Row | pIC50 (pERK in AGS cells; Homo sapiens, AGS, 3 h) | pIC50 (pERK in AsPC-1 cells; [1]) | pIC50 (pERK in AGS cells) | pIC50 (pERK in AsPC-1 cells; AsPC-1 cells) | Compound
17 | 5.28 | < 5.00 | – | – | C[C@@]1(O)CCCN(c2nc(OCC(F)(F)F)nc3c(F)c4c(cc23)NCCCCCc2c(F)ccc3cc(O)cc-4c23)C1 [Example 17A, (R)-3,15-difluoro-11-(3-hydroxy-3-methylpiperidin-1-yl)-13-(2,2,2-trifluoroethoxy)-4,5,6,7,8,9-hexahydro-naphtho[1′,8′:4,5,6111]azacycloundecino[2,3-g]quinazoline-17-ol]
18 | < 5.00 | < 5.00 | – | – | C[C@@]1(O)CCCN(c2nc(OCC34CCC(CC3)CO4)nc3c(F)c4c(cc23)NCCCCCc2c(F)ccc3cc(O)cc-4c23)C1 [Example 18A]
19 | – | – | < 5.00 | < 5.00 | C=C1CN2CC(F)(F)CC2(COc2nc(N3CCC[C@@](C)(O)C3)c3cc4c(c(F)c3n2)-c2cc(O)cc3ccc(F)c(c23)CCCCCN4)C1 (single isomer, unassigned) [Example 57B]
20 | – | – | 6.29 | 5.34 | C[C@@]1(O)CCCN(c2nc(OCC34CCCN3CCC4)nc3c(F)c4c(cc23)NCCCCCc2c(F)ccc3cc(O)cc-4c23)C1 (single isomer, unassigned) [Example 21B]
21 | – | – | 5.72 | 5.14 | C[C@@]1(O)CCCN(c2nc(OCC34CCCN3C[C@]3(C4)CC3(F)F)nc3c(F)c4c(cc23)NCCCCCc2c(F)ccc3cc(O)cc-4c23)C1 (single isomer, unassigned) [Example 24B]
22 | – | – | < 5.00 | < 5.00 | CC1(O)CCCN(c2nc(OCC34CCC(CC3)CO4)nc3c(F)c4c(cc23)NCCCCCc2c(F)ccc3cc(O)cc-4c23)C1 [Example 18B, (R)-13-(((2-oxabicyclo[2.2.2]octan-1-yl)methoxy)-3,15-difluoro-11-(3-hydroxy-3-methylpiperidin-1-yl)-4,5,6,7,8,9-hexahydro-naphtho[1′,8′:4,5,6][1]azacycloundecino[2,3-g]quinazoline-17-ol]
23 | – | – | 5.70 | 5.51 | C[C@@]1(O)CCCN(c2nc(OC[C@@]34CCCN3C[C@H](F)C4)nc3c(F)c4c(cc23)NCCOCCc2c(F)ccc3cccc-4c23)C1 (single isomer, unassigned) [Example 52A]
24 | – | < 5.00 | 5.94 | – | C=C1CN2CC(F)(F)CC2(COc2nc(N3CCC[C@@](C)(O)C3)c3cc4c(c(F)c3n2)-c2cc(O)cc3ccc(F)c(c23)CCCCCN4)C1 (single isomer, unassigned) [Example 57A]
